# Laboratory results reported in patent US9493468B2, “Antifungal 5,6-dihydro-4H-pyrrolo[1,2-a][1,4]benzo-diazepines and 6H-pyrrolo[1,2-a][1,4]benzodiazepines substituted with heterocyclic derivatives” (Janssen Pharmaceutica NV, priority 2011, dated 2016).
# Experiments:
# Assay type in all cases: cell-based
# [1] = tested on: Candida parapsilosis; assay: Antifungal activity in vitro, resazurin growth inhibition: Candida parapsilosis (B66126)
# Method in brief: (§1)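 Compound dilutions, with 64 μM as the highest in-test level, are spotted onto plates, then an inoculum of 10^3 cfu in RPMI-1640 plus 2% glucose (MOPS, pH 7.0±0.1) is added. Plates are incubated at species-dependent time and temperature, up to a week or more at 27° C. for dermatophytes.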
# [2] = tested on: Scedosporium apiospermum; assay: Antifungal activity in vitro, resazurin growth inhibition: Scedosporium apiospermum (IHEM3817)
# Protocol: (§2) The standard susceptibility screen is performed in 96-well plates (U-bottom, Greiner Bio-One). Serial dilutions (2-fold or 4-fold) of 20 mM compound stock solutions are made in 100% DMSO, followed by an intermediate dilution step in water. These serial dilutions (10 μl) are then spotted onto test-plates that can be stored in the dark at 4° C. for a maximum period of 2 weeks. An adequate broad dose-range is included with 64 μM as the highest in-test concentration. The culture medium RPMI-1640 is supplemented with L-glutamine, 2% glucose and buffered with 3-(N-morpholino)-propanesulfonic acid (MOPS) at pH 7.0±0.1.
# (§3) The different fungal species/isolates (Table 3a) are cryopreserved and 1/1000 diluted in medium just prior to use. A standard inoculum of 200 μl containing 10^3 colony-forming unit (cfu) is then added to each well. A positive control (100% growth=fungal culture without antifungal) and a negative control (0% growth ═RPMI-MOPS medium) are included on each plate. Optimal incubation time and temperature are dependent on the fungal species and vary from 24 h for yeasts (37° C.) to one week or more for dermatophytes (27° C.). Inhibition of fungal growth is measured after adding 10 μl of 0.005% (w/v) resazurin (Sigma Aldrich) to each well, based on the principle that living cells convert the non-fluorescent blue resazurin into the pink and fluorescent resorufin, allowing fluorimetric reading (λex 550 nm and λem 590 nm) after an additional incubation period (‘resa’ time mentioned in Table 3a).
# [3] = tested on: Cryptococcus neoformans; assay: Antifungal activity in vitro, resazurin growth inhibition: Cryptococcus neoformans (B66663)
# Method in brief: as §1
# [4] = tested on: Sporothrix schenkii; assay: Antifungal activity in vitro, resazurin growth inhibition: Sporothrix schenkii (B62482)
# Method in brief: as §1
# [5] = tested on: Aspergillus fumigatus; assay: Antifungal activity in vitro, resazurin growth inhibition: Aspergillus fumigatus (B42928)
# Method in brief: as §1
# [6] = tested on: Rhizopus oryzae; assay: Antifungal activity in vitro, resazurin growth inhibition: Rhizopus oryzae (IHEM5223)
# Protocol: as §2, §3
# [7] = tested on: Scedosporium prolificans; assay: Antifungal activity in vitro, resazurin growth inhibition: Scedosporium prolificans (IHEM21157)
# Protocol: as §2, §3
# [8] = tested on: Trichophyton mentagrophytes; assay: Antifungal activity in vitro, resazurin growth inhibition: Trichophyton mentagrophytes (B70554)
# Method in brief: (§4)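 Dermatophytes incubated at 27° C. for one week or more with compound, max 64 μM, in RPMI-1640/MOPS pH 7.0±0.1, 10^3 cfu/well. Viability by resazurin-to-resorufin fluorescence, 550/590 nm.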
# [9] = tested on: Rhizomucor miehei; assay: Antifungal activity in vitro, resazurin growth inhibition: Rhizomucor miehei (IHEM13391)
# Protocol: as §2, §3
# [10] = tested on: Trichophyton rubrum; assay: Antifungal activity in vitro, resazurin growth inhibition: Trichophyton rubrum (B68183)
# Method in brief: as §4
# [11] = tested on: Microsporum canis; assay: Antifungal activity in vitro, resazurin growth inhibition: Microsporum canis (B68128)
# Method in brief: as §4
SMILES,"Inf. D: Candida parapsilosis B66126, pIC50 [1]","Inf. H: Scedosporium apiospermum IHEM3817, pIC50 [2]","Inf. F: Cryptococcus neoformans B66663, pIC50 [3]","Inf. A: Sporothrix schenkii B62482, pIC50 [4]","Inf. E: Aspergillus fumigatus B42928, pIC50 [5]","Inf. J: Rhizopus oryzae IHEM5223, pIC50 [6]","Inf. I: Scedosporium prolificans IHEM21157, pIC50 [7]","Inf. G: Trichophyton mentagrophytes B70554, pIC50 [8]","Inf. K: Rhizomucor miehei IHEM13391, pIC50 [9]","Inf. C: Trichophyton rubrum B68183, pIC50 [10]","Inf. B: Microsporum canis B68128, pIC50 [11]"
CC(F)(F)c1ccc(C2=NCc3c(Cl)cc(F)cc3-n3cccc32)cn1 [Compound 85],5.61,5.44,5.86,4.63,6.28,<4.19,4.81,6.60,<4.19,6.81,6.73
CC(F)(F)c1ccc(C2=NCc3c(F)cc(F)cc3-n3cccc32)cn1 [Compound 86],5.56,4.43,4.99,4.94,5.68,<4.19,5.77,5.59,<4.19,6.30,5.67
FC(F)(F)c1ccc(C2=NCc3ccccc3-n3cccc32)cn1 [Compound 87],<4.19,<4.19,<4.19,<4.19,4.94,<4.19,5.71,5.18,<4.19,6.54,5.97
Cc1cccc2c1CN=C(c1ccc(C(F)(F)F)nc1)c1cccn1-2 [Compound 88],<4.19,5.28,<4.19,4.85,<4.19,<4.19,6.14,5.80,<4.19,7.10,6.63
FC(F)(F)c1ccc(C2=NCc3c(Cl)cccc3-n3cccc32)cn1 [Compound 89],6.17,<4.19,<4.19,<4.19,5.70,<4.19,6.28,6.23,<4.19,6.75,6.14
FC(F)(F)c1ccc(C2=NCc3c(Cl)cc(Cl)cc3-n3cccc32)cn1 [Compound 91],<4.19,<4.19,<4.19,5.10,5.75,<4.19,5.28,5.72,<4.19,6.27,5.69
